Results as given in patent publication US20240148895A1, “ANTIBODY-DRUG CONJUGATE” (Eisai R&D Management Co., Ltd., priority 2022, published 2024).

Test system: AsPC-1/Cas9 cell line (human pancreatic cancer cell line AsPC-1)
Assay: AsPC-1/Cas9 growth inhibition assay
Format: cell-based
Settings: 5 days culture, CellTiter Glo 2.0, read-out: IC50 (Absolute IC50, 50% inhibition of cell growth)
Procedure: Human pancreatic cancer cell line AsPC-1 (ATCC Number CRL1682) was infected with Edit-R Lentiviral hCMV-Blast-Cas9 Nuclease Particle (Dharmacon, VCAS10124) in the presence of 8 μg/ml of Hexadimethrine bromide (Sigma, H9268), and after 24 hours it was exposed to 10 μg/ml of Blastcidin S (Thermo, A11139) to remove the uninfected cells, thereby establishing an AsPC-1/Cas9 cell line. The cells were maintenance cultured in a 5% CO2 incubator (37° C.) using RPMI-1640 (FujiFilm-Wako Pure Chemical Industries) containing 10% fetal bovine serum (FBS: SIGMA 173012) and penicillin/streptomycin (FujiFilm-Wako Pure Chemical Industries) (hereunder referred to simply as “culture medium”). After adding 25 μL of AsPC-1/Cas9 cell suspension prepared to 3.2×10^4 cells/mL using culture medium into each well of a 384-well plate (Greiner 781091), the cells were cultured overnight in a 5% CO2 incubator (37° C.). On the following day, 25 μL of the test substance diluted with culture medium was added to each well, and culturing was continued for 5 days in a 5% CO2 incubator (37° C.). Next, 25 μL of CellTiter Glo™ 2.0 (Promega) was added to each well, and the plate contents were mixed for 5 minutes using a plate mixer. The plate was stationed for 10 minutes at room temperature while shielded from light, and then the luminous intensity was measured with an ENVISION™ (Perkin-Elmer). The luminescence value of the wells with addition of test substance was determined as a relative value, with 100% as the luminescence value of the wells with cells but without addition of the test substance and 0% as the luminescence value of the wells without cells. A plot of test substance concentration against luminescence value % approximated a 4-parameter logistic curve, and the test substance concentration necessary for 50% inhibition of cell growth (Absolute IC50) was calculated, and is shown in Table 10. In Table 10, the antibodies listed as “CEACAM6_#84.7” are the anti-CEACAM6 antibody of Example 301-1, the antibodies listed as “003” are the anti-folate receptor α antibody of Example 301-2, and the antibodies listed as “345A12” are the anti-mesothelin antibody of Example 301-3.
According the same method as in the AsPC-1/Cas9 growth inhibition assay described in Example 313 above, the test substance concentration necessary for 50% inhibition of cell growth (Absolute IC50) in the ADC described in Example 318 was calculated and is shown in Table 12.

Row | Compound | IC50
1 | Cc1cc(-c2ccc3cc(N=S(C)(C)=O)nc(C(CO)(OC4CC4)c4ccccc4)c3c2)cn(C)c1=O (stereo not shown) [Example 9, 5-(1-(1-Cyclopropoxy-2-hydroxy-1-phenylethyl)-3-((dimethyl(oxo)-16-sulfanylidene)amino)isoquinolin-7-yl)-1,3-dimethylpyridin-2(1H)-one] | 0.075 nM
2 | Cc1cc(-c2ccc3nc(N)nc(C(CO)(Cc4ccccc4)c4ncccn4)c3c2)cn(C)c1=O (stereo not shown) [Example 24, 5-(2-Amino-4-(1-hydroxy-3-phenyl-2-(pyrimidin-2-yl)propan-2-yl)quinazolin-6-yl)-1,3-dimethylpyridin-2(1H)-one] | 0.043 nM
3 | Cc1cc(-c2ccc3nc(N)nc(C(CO)(OC4CC4)c4cccs4)c3c2)cn(C)c1=O (stereo not shown) [Example 15, 5-(2-Amino-4-(1-cyclopropoxy-2-hydroxy-1-(thiophen-2-yl)ethyl)quinazolin-6-yl)-1,3-dimethylpyridin-2(1H)-one] | 0.039 nM
4 | CCOC(CO)(c1ccccc1)c1nc(C(N)=O)cc2ccc(-c3cc(C)c(=O)n(C)c3)cc12 (stereo not shown) [Example 16, 7-(1,5-Dimethyl-6-oxo-1,6-dihydropyridin-3-yl)-1-(1-ethoxy-2-hydroxy-1-phenylethyl)isoquinoline-3-carboxamide] | 0.035 nM
5 | Cc1cc(-c2ccc3nc(NS(C)(=O)=O)nc(C(CO)(CC4CCC4)c4ccccc4)c3c2)cn(C)c1=O (stereo not shown) [Example 8, N-(4-(1-Cyclobutyl-3-hydroxy-2-phenylpropan-2-yl)-6-(1,5-dimethyl-6-oxo-1,6-dihydropyridin-3-yl)quinazolin-2-yl)methanesulfonamide] | 0.043 nM
6 | Cc1cc(-c2ccc3nc(N=S(C)(C)=O)nc(C(CO)(OC(C)C)c4ccccc4)c3c2)cn(C)c1=O (stereo not shown) [Example 19, 5-(2-((Dimethyl(oxo)-16-sulfanylidene)amino)-4-(2-hydroxy-1-isopropoxy-1-phenylethyl)quinazolin-6-yl)-1,3-dimethylpyridin-2(1H)-one] | 0.031 nM
7 | CCCC(CO)(c1ccccn1)c1[nH]c(=O)cc2ccc(-c3cc(C)c(=O)n(C)c3)cc12 (stereo not shown) [Example 11, 7-(1,5-Dimethyl-6-oxo-1,6-dihydropyridin-3-yl)-1-(1-hydroxy-2-(pyridin-2-yl)pentan-2-yl)isoquinoline-3(2H)-one] | 0.039 nM
8 | CCOCCC(CO)(c1ccccn1)c1nc(N)nc2ccc(-c3cc(C)c(=O)n(C)c3)cc12 (stereo not shown) [Example 12, 5-(2-Amino-4-(4-ethoxy-1-hydroxy-2-(pyridin-2-yl)butan-2-yl)quinazolin-6-yl)-1,3-dimethylpyridin-2(1H)-one] | 0.038 nM
9 | Cc1cc(-c2ccc3nc(CNS(C)(=O)=O)nc(C(CO)(OC4CC4)c4ccccc4)c3c2)cn(C)c1=O (stereo not shown) [Example 18, N-((4-(1-Cyclopropoxy-2-hydroxy-1-phenylethyl)-6-(1,5-dimethyl-6-oxo-1,6-dihydropyridin-3-yl)quinazolin-2-yl)methyl)methanesulfonamide] | 0.047 nM
10 | Cc1cc(-c2ccc3nc(N=S(C)(C)=O)nc(C(CO)(CC4CCOCC4)c4ccccc4)c3c2)cn(C)c1=O (stereo not shown) [Example 6] | 0.029 nM
11 | Cc1cc(-c2ccc3nc(N)nc(C(CO)(CC4CC4)c4cccnc4)c3c2)cn(C)c1=O (stereo not shown) [Example 20, 5-(2-Amino-4-(1-cyclopropyl-3-hydroxy-2-(pyridin-3-yl)propan-2-yl)quinazolin-6-yl)-1,3-dimethylpyridin-2(1H)-one] | 0.035 nM
12 | Cc1cc(-c2ccc3nc(N=S(C)(C)=O)nc(C(CO)(OC4CCC4)c4ccccc4)c3c2)cn(C)c1=O (stereo not shown) [Example 13, 5-(4-(1-Cyclobutoxy-2-hydroxy-1-phenylethyl)-2-((dimethyl (oxo)-16-sulfanylidene)amino)quinazolin-6-yl)-1,3-dimethylpyridin-2(1H)-one] | 0.043 nM
13 | Cc1cc(-c2ccc3nc(N=S(C)(C)=O)nc(C(CO)(Cc4ccccc4)c4ccccc4)c3c2)cn(C)c1=O (stereo not shown) [Example 23, 5-(2-((Dimethyl(oxo)-16-sulfanylidene)amino)-4-(1-hydroxy-2,3-diphenylpropan-2-yl)quinazolin-6-yl)-1,3-dimethylpyridin-2(1H)-one] | 0.034 nM
14 | 4-(2-(4-Amino-4-methyl-[1,4′-bipiperidin]-1′-yl)-4-(1-cyclopropoxy-2-hydroxy-1-phenylethyl)quinazolin-6-yl)-6-methyl-1,6-dihydro-7H-pyrrolo[2,3-c]pyridin-7-one [Example 27] | < 0.015 nM
15 | CN1CCC(Oc2nc(C(CO)(OC3CC3)c3ccccc3)c3cc(-c4cn(C)c(=O)c5c4COC5)ccc3n2)CC1 (stereo not shown) [Example 14, 7-(4-(1-Cyclopropoxy-2-hydroxy-1-phenylethyl)-2-((1-methylpiperidin-4-yl)oxy)quinazolin-6-yl)-5-methyl-3,5-dihydrofuro[3,4-c]pyridine-4(1H)-one] | 0.038 nM
16 | Cc1cc(-c2ccc3nc(N=S(C)(C)=O)nc(C(CO)(CC(C)C)c4ccccc4)c3c2)cn(C)c1=O (stereo not shown) [Example 7, 5-(2-((Dimethyl(oxo)-16-sulfanylidene)amino)-4-(1-hydroxy-4-methyl-2-phenylpentan-2-yl)quinazolin-6-yl)-1,3-dimethylpyridin-2(1H)-one] | 0.051 nM
17 | COCCC(CO)(c1ccccc1)c1nc(N=S(C)(C)=O)nc2ccc(-c3cc(C)c(=O)n(C)c3)cc12 (stereo not shown) [Example 22, 5-(2-((Dimethyl(oxo)-16-sulfanylidene)amino)-4-(1-hydroxy-4-methoxy-2-phenylbutan-2-yl)quinazolin-6-yl)-1,3-dimethylpyridin-2(1H)-one] | 1.6 nM
18 | COc1ccc(CC(CO)(c2ccccn2)c2nc(N=S(C)(C)=O)nc3ccc(-c4cc(C)c(=O)n(C)c4)cc23)cc1F (stereo not shown) [Example 21, 5-(2-((Dimethyl(oxo)-16-sulfanylidene)amino)-4-(1-(3-fluoro-4-methoxyphenyl)-3-hydroxy-2-(pyridin-2-yl)propan-2-yl)quinazolin-6-yl)-1,3-dimethylpyridin-2(1H)-one] | 0.061 nM
19 | CCn1c(=O)nc(C(CO)(OC)c2ccccc2)c2cc(-c3cc(C)c(=O)n(C)c3)ccc21 (racemic) [Example 17, 6-(1,5-Dimethyl-6-oxo-1,6-dihydropyridin-3-yl)-1-ethyl-4-(2-hydroxy-1-methoxy-1-phenylethyl)quinazoline-2(1H)-one] | 0.04 nM
20 | Cc1cc(-c2ccc3nc(NC(=O)N4CC(O)C4)nc(C(CO)(OC4CC4)c4ccccc4)c3c2)cn(C)c1=O (stereo not shown) [Example 10, N-(4-(1-Cyclopropoxy-2-hydroxy-1-phenylethyl)-6-(1,5-dimethyl-6-oxo-1,6-dihydropyridin-3-yl)quinazolin-2-yl)-3-hydroxyazetidine-1-carboxamide] | 0.036 nM
21 | 2-Cyclopropoxy-2-(2-(4-(((2S,5R)-2,5-dimethylpiperazin-1-yl)methyl)piperidin-1-yl)-6-(4-methoxy-1-methyl-6-oxo-1,6-dihydropyridin-3-yl)quinazolin-4-yl)-2-phenylethyl methyl(2-(methylamino)ethyl)carbamate [Example 34] | 0.083 nM
22 | Cc1cc(-c2ccc3nc(NS(C)(=O)=O)nc(C(CO)(CC4CC4)c4ccccn4)c3c2)cn(C)c1=O (stereo not shown) [Example 5, N-(4-(1-Cyclopropyl-3-hydroxy-2-(pyridin-2-yl)propan-2-yl)-6-(1,5-dimethyl-6-oxo-1,6-dihydropyridin-3-yl)quinazolin-2-yl)methanesulfonamide] | 0.035 nM
